From ChEMBL document CHEMBL1129018, “Asymmetric synthesis of cis-()-(2R4S)-4-(phosphonomethyl)-2-piperidinecarboxylic acid, a potent NMDA receptor antagonist” (Bioorg Med Chem Lett, 1996)

Assay: Compound was tested for binding activity against N-methyl-D-aspartic acid(NMDA) receptor in rat brain crude synaptic membranes
Assay type: cell membranes

Compound | IC50 [nM]
O=C(O)[C@@H]1C[C@H](CP(=O)(O)O)CCN1 (stereo in doubt) [SELFOTEL] | 10000
O=C(O)[C@@H]1C[C@H](CP(=O)(O)O)CCN1 (stereo in doubt; form 1) [SELFOTEL] | 69
O=C(O)[C@@H]1C[C@H](CP(=O)(O)O)CCN1 (stereo in doubt; form 2) [SELFOTEL] | 29
